Measured values taken from US20110091574A1, “TREATMENT OF ADENOCARCINOMA EXPRESSING LKB1 WITH MTOR INHIBITOR IN COMBINATION WITH COX2 INHIBITOR” (Catholic Healthcare West, priority 2008, published 2011).

Columns and labels:
H23-LKB1 cells [1] = assay: Immunoblot of cleaved PARP; type: cell-based, human; details: H23 re-expressing LKB1; 20 mM 2-DG, 24 hours
Method: (§1) FIG. 4 (in panels A through F) illustrates in graphs and immunoblots that 2-DG induces apoptosis in LKB1 null NSCLC cells. […] Bars represent standard error and the studies were repeated twice. FIG. 4B is an immunoblot of cleaved PARP. H23 and H2009 cells were treated for 24 hours with 20 mM of 2-DG. […] GAPDH was used as a loading control. FIG. 4C is an immunoblot of LKB1 and KDLKB1 in H23 cells after retroviral infection and puromycin selection. GAPDH was used as a loading control. FIG. 4D is an immunoblot that illustrates 2-DG activation of LKB1 in H23-LKB1, but not H23-KDLKB1 cells. The blot was stripped and probed for AMPK as a loading control. The blot represents two independent studies. FIG. 4E is a graph that illustrates that LKB1, but not KDLKB1 prevents activation of caspase 3 and 7 in H23 cells. H23-LKB1 and H23-KDLKB1 cells were treated for 24 hours with 20 mM 2-DG before analysis as described hereinafter. Bars represent standard error, and the study was repeated twice. FIG. 4F is an immunoblot of cleaved PARP in H23-LKB1 and H23-KDLKB1 after treatment with 20 mM of 2-DG for 24 hours. Blot is representative of two independent studies. GAPDH was used as a loading control. […]
(§2) Cells were incubated on ice for 30 minutes with a lysis buffer containing 10 mM Tris-HCL, 150 mM NaCl and 1% IGEPAL (Sigma). […] Protein concentration was determined using the Bio-Rad DC protein kit. […]

[2] = system: AMPK phosphorylation in H2009, H441, H23, H2122 NSCLC cell lines; assay: Immunoblot of AMPK Thr172 phosphorylation after 2-DG; type: cell-based, human; details: 20 mM 2-DG, 1 hour; LKB1 positive H2009, H441 vs LKB1 negative H23, H2122
Method: (§3) FIG. 3 (in three panels, A, B and C) illustrates the effect of 2-deoxyglucose (2-DG) in LKB1 null and LKB1 expressing NSCLC cells. FIG. 3A is an immunoblot of LKB1 in H23, H2122, H2009 and H441 NSCLC cell lines. GAPDH was used as a loading control. FIG. 3B illustrates an immunoblot showing the induction of AMPK phosphorylation by 2-DG. LKB1 positive (H2009, H441) and LKB1 negative (H23, H2122) cell lines were treated with 20 mM of 2-DG for 1 hour. Protein lysates were immunoblotted with an antibody specific to phosphorylated Thr172 AMPK. It is noted that 2-DG induces phosphorylation at Thr172 only in LKB1 expressing cells. Both AMPK and GAPDH were used as loading controls. The blot is representative of two independent experiments. C-LKB1 null NSCLC cell are more sensitive to 2-DG. […] NSCLC cell lines were treated for 48 hours with indicated concentrations of 2-DG. Bars represent standard error.
To investigate the role of LKB1 in the effectiveness of 2-DG treatment, four NSCLC cell lines (H23, H2122, H441, H2009) were screened by immunoblot for LKB1 expression (FIG. 3A).
as §2

H23-LKB1 cells [3] = assay: Caspase 3/7 activity (Caspase-Glo 3/7); type: cell-based, human; details: H23 re-expressing LKB1; 20 mM 2-DG, 24 hours
Method: as §1, with “hours.” for “hours. Blot is representative of two independent studies. GAPDH was used as a loading control.”
(§4) Cell lines were plated at a density of 5000 cells per well in 96 well plates. […] Activity of caspases 3 and 7 were determined using a Caspase-Glo® 3/7 kit (Promega) according to manufacturer's instructions and scanned using a Beckman Coulter DTX 880 plate reader. […]

[4] = system: LKB1 null NSCLC cells (H23, H2122); assay: Cell viability after 2-DG (CellTiter Blue); type: cell-based, human; details: 48 hours
Method: as §3
(§5) Because LKB1-AMPK signaling can affect cell growth or cell number, the number of viable LKB1 null and LKB1 positive cells were compared after treatment with 2-DG for a range of concentrations, over time.
(§6) LKB1 negative (H23, H2122) and positive (H2009, H441) NSCLC cell lines were treated with decreasing doses of 2-deoxyglucose (2-DG) for 72 hours. Cell viability, markers of apoptosis (e.g. PARP, Caspases), and gene expression profiles were evaluated from treated versus untreated samples.
(§7) Cell lines were plated at a density of 2500 cells per well in 96 well plates. After attachment, 2-DG was diluted in media at indicated concentrations and added to wells. Treatment was carried out for 48 hours in standard cell culture conditions, before cell viability was assessed using the CellTiter® Blue kit (Promega) according to manufacturer's instructions and read on a Beckman Coulter DTX 880. The percentage of viable cells was determined by normalizing treated samples to vehicle (PBS).

[5] = system: LKB1 positive NSCLC cells (H2009, H441); assay: Cell viability after 2-DG (CellTiter Blue); type: cell-based, human; details: 20 mM 2-DG, 48 hours
Method: as §3, §5, §6, §7

H23-KDLKB1 cells = assay: Immunoblot of AMPK phosphorylation after 2-DG; type: cell-based, human; details: H23-KDLKB1 cells treated with 2-DG
Method: as §1, §2

H23-LKB1 cells [6] = assay: Immunoblot of AMPK phosphorylation after 2-DG; type: cell-based, human; details: H23-LKB1 cells treated with 2-DG
Method: as §1, §2

H23 cells [7] = assay: Immunoblot of cleaved PARP; type: cell-based, human; details: 20 mM 2-DG, 24 hours
Method: as §1, §2

[8] = system: LKB1 positive lines (H2009); assay: Microarray gene expression profiling of 2-DG-treated cells; type: cell-based, human
Method: (§8) To test this hypothesis, apoptosis-related transcripts of H23 (LKB1 null) and H2009 (LKB1 positive) cells were compared by treatment with either low (2.5 mM) or high dose (20 mM) 2-DG or vehicle (PBS) for 6 hours followed by microarray-based assessment of gene expression. […] LKB1 negative (H23, H2122) and positive (H2009, H441) NSCLC cell lines were treated with decreasing doses of 2-deoxyglucose (2-DG) for 72 hours. Cell viability, markers of apoptosis (e.g. PARP, Caspases), and gene expression profiles were evaluated from treated versus untreated samples. Total RNA was extracted from cells using TRIzol (Invitrogen) followed by RNeasy Mini Kit purification (Qiagen) according to manufacturers specifications. Spectrophotometric analysis was performed on a NanoDrop ND-1000 (Thermo Scientific) and RNA quality was assessed on a BioAnalyzer 2100 (Agilent) using strict RNA integrity QC cutoffs. 500 ng of RNA was labeled and hybridized (in duplicate) to Agilent 4×44K Whole Human Genome One-Color Oligo Microarrays according to manufacturer specifications. Slides were scanned using the Agilent Microarray Scanner (model […]) and processed with Agilent's Feature Extraction software (v. 9.5.1). Comparative and statistical analyses for gene expression profiles, were carried out using GeneSpring 7.3. Apoptosis-related genes of interest were identified by key word search (“apoptosis”) followed by unsupervised hierarchical clustering. Significance values were determined by comparing expression of all LKB1+ samples (grouped) to all LKB1- samples (grouped) for each gene using the Student's t-test and a p<0.05 cutoff after multiple testing correction using the false discovery rate (FDR) method.

[9] = system: LKB1 negative cell lines (H23); assay: as above; type: cell-based, human
Method: as §8

mTOR in LKB1 null cells = assay: mTOR activation in cells treated with 2-DG; type: cell-based; details: LKB1 null cells treated with 2-DG
H23 cells [10] = assay: Caspase 3/7 activity (Caspase-Glo 3/7); type: cell-based, human; details: H23 (LKB1 null); increasing doses of 2-DG, 24 hours
Method: as §1, with “hours.” for “hours. Blot is representative of two independent studies. GAPDH was used as a loading control.”
as §4

COX-2 and COX-1 enzymes = details: cited from earlier work; for inhibition of COX-2 relative to COX-1: in vitro
[11] = human, single oral dose of 200 mg; cited from earlier work
[12] = cited from earlier work

For `O=CC[C@@H](O)[C@H](O)[C@H](O)CO` [2-DG, 2-deoxyglucose], the “cleavage of PARP” value (H23-LKB1 cells [1]) was “prevented cleavage of PARP”, the “activation of AMPK (phosphorylation at Thr172)” value [2] was “induced LKB1 dependent activation of AMPK” and the “2-DG induced activation of caspase 3 and 7” value (H23-LKB1 cells [3]) was “prevented 2-DG induced activation of caspase 3 and 7”. The cell viability ([4]; LKB1 negative cells, 20 mM 2-DG) was “significant decrease in cell viability”, the “cell viability compared to LKB1 positive cells” value ([4]; LKB1 null cells, all doses, lowest 2.5 mM, p=5.73×10^−13) was “significant decrease in cell viability for all doses tested” and the cell viability [5] was “significant decrease in cell viability”. For the same compound, the “phosphorylation of AMPK” value (H23-KDLKB1 cells) was “does not”, the “phosphorylation of AMPK” value (H23-LKB1 cells [6]) was “capable of phosphorylating AMPK” and the “cleaved PARP (marker of apoptosis)” value (H23 cells [7]) was “present”. The “expression of pro-apoptotic markers” value [8] was “no changes in expression”, the “expression of BCL-2 and BCL-2 interacting proteins” value ([9]; H23 (LKB1 null), 2.5 mM or 20 mM 2-DG, 6 hours, microarray) was “dose dependent changes” and the “expression of pro-apoptotic markers” value ([9]; LKB1 negative cell lines, 2-DG-treated) was “increase in the expression of pro-apoptotic markers”. The mTOR activation (mTOR in LKB1 null cells) was “increased mTOR activation” and the “activation of caspases 3 and 7” value (H23 cells [10]) was “dose dependent activation of caspases 3 and 7”.

For `CC(=O)Oc1ccccc1C(=O)O` [aspirin], the “inhibition of COX-2 relative to COX-1” value (COX-2 and COX-1 enzymes) is given as “about equipotent”.

In the case of `Cc1ccc(-c2cc(C(F)(F)F)nn2-c2ccc(S(N)(=O)=O)cc2)cc1` [celecoxib], the Cmax [11] is listed as 709 ng/mL and the cardiovascular side effects ([12]; long-term use at 400 mg once daily, or 200 mg or 400 mg twice daily) is listed as “severe cardiovascular side effects”.

For `Cc1ccc(-c2ncc(Cl)cc2-c2ccc(S(C)(=O)=O)cc2)cn1` [etoricoxib], the “relative degree of selectivity for COX-2 over COX-1 (rank order)” value (COX-2 and COX-1 enzymes) is listed as “lumiracoxib=etoricoxib>valdecoxib=rofecoxib>>celecoxib”.

In the case of `CC(C)Cc1ccc(C(C)C(=O)O)cc1` (stereo not shown) [ibuprofen], the “inhibition of COX-2 relative to COX-1” value (COX-2 and COX-1 enzymes) is given as “sevenfold”.

For `Cc1ccc(Nc2c(F)cccc2Cl)c(CC(=O)O)c1` [lumiracoxib], the “relative degree of selectivity for COX-2 over COX-1 (rank order)” value (COX-2 and COX-1 enzymes) is listed as “lumiracoxib=etoricoxib>valdecoxib=rofecoxib>>celecoxib”.

For `CS(=O)(=O)c1ccc(C2=C(c3ccccc3)C(=O)OC2)cc1` [rofecoxib], the “potency at inhibiting COX-2 relative to COX-1” value (COX-2 and COX-1 enzymes) is given as “about 300 times” and the “increased risk of cardiovascular toxicities” value ([12]; trial to prevent adenomas) is given as “two-fold”.
